According to US12409161B2, “Compound for treating neurodegenerative disorders” (FUDAN UNIVERSITY, priority 2019, dated 2025):

Assays:
[1] = molecular target: T1, mutant ATXN1 protein (His-ATXN1-Q92) (Homo sapiens, UniProt P54253, INS208QQQQQQQQQQQQQQQQQQQQQQQQQQQQQQQQQQQQQQQQQQQQQQQQQQQQQQQQQQQQQQQQQQQQQQQQQQQQQQQQ); experiment: HTRF of mutant ATXN1 level in HEK293T cells expressing His-ATXN1-Q92; type: cell-based; conditions: 100 nM for 2 days, HTRF anti-His-Tb/MW1-D2
T1 construct: expressed in transfected cells; host or cells: HEK293T (ATCC, CRL-3216)

mHTT [2] = molecular target: T2, mHTT (Homo sapiens, UniProt P42858, INS38QQQQQQQQQQQQQQQQQQQQQQQQQQ); experiment: HTRF of mHTT in HD patient iPSC-derived neurons (Q47); type: cell-based
T2 construct: endogenous in cells; host or cells: HD patient iPSC-derived neurons (Q47)

wtHTT [3] = molecular target: T3, wtHTT (Mus musculus, UniProt P42859); experiment: Western-blot of HTT levels in primary cultured Hdh^Q7/Q7 mouse cortical neurons; type: cell-based; parameters: endogenous in cells; host or cells: primary cortical neurons of newborn Hdh Q140/Q7 or Hdh Q7/Q7 mice; conditions: treated 2 days, Western-blots (antibody 2166)
Method: (§1) Primary cultured cortical neurons: The brains of Hdh^Q140/Q7 and Hdh^Q7/Q7 newborn mice (P0) were dissected, digested, dissociated, and cultured.
(§2) (1) The primary cultured Hdh^Q140/Q7 and Hdh^Q7/Q7 mouse cortical neuron cells were treated with the compound for 2 days. Then the levels of mHTT and wtHTT were detected by Western-blots (antibody 2166) (FIG. 4 and FIG. 5). […]

[4] = molecular target: T4, human HTT full-length protein (Q128) (Homo sapiens, UniProt P42858); experiment: mHTT level in heads of Huntington's disease Drosophilae (HTRF); type: in vivo, Drosophila; conditions: food with 10 μM in 400 μL DMSO, 6 days, head protein, HTRF 2B7/MW1
T4 construct: transgenic Drosophilae expressing human HTT full-length protein (Q128); tissue Bloomington Drosophila Stock Center (fly lines); host or cells: heads of elav-GAL4 x UAS-fl-HTT-Q128 Drosophila
Method: Crosses were set up between virgin female Drosophilae carrying elav-GAL4 driver and the UAS-fl-HTT-Q16 or UAS-fl-HTT-Q128 male Drosophilae to generate a transgenic Drosophilae driven by elav-GAL4 to express human HTT full-length protein (Q16) or (Q128) in the nervous system.
The negative control group was given the corresponding solvent DMSO, and the positive drug groups was given the corresponding positive drug.
Drosophilae were kept in standard food at 25° C. The newly hatched Drosophilae were transferred to vials with food containing the positive drug (10 μM in 400 μL DMSO) or DMSO for control. The corn food was changed every other day.
The mHTT level was measured by HTRF (antibody pair: 2B7/MW1), where each sample included head proteins from five Drosophila (FIG. 14).

[5] = system: HD patient iPSC-derived neurons (Q47); experiment: Neuronal apoptosis of HD patient iPSC-derived neurons after BDNF removal (TUBB3 immunostaining, caspase-3 activity); type: cell-based, human; conditions: 100 nM compound 1 or 50 nM compound 2 for 1 day, then BDNF removal
Method: Immunofluorescence: cells were washed, fixed, permeabilized and blocked, then incubated with primary antibody overnight at 4° C., then washed three times with blocking buffer, and incubated with secondary antibody for 1 hour at room temperature, stained with DAPI, and mounted. Images were taken by Zeiss Axio Vert A1 confocal microscope. TUBB3 or co-localization was analyzed using ImageJ.
Then the cells were stressed (by BDNF removal).
Neuronal specific tubulin marker TUBB3 […]. The TUBB3 signal covered area was normalized to the cell nuclei counts, and the data was normalized to the wild type controls to analyze neuronal apoptosis (FIG. 12).
NucView 488 (Biotium, 30029) was used to detect active caspase-3. After removing BDNF, Incucyte (Essen Bioscience, IncuCyte FLR) was used to capture images every 3 hours in the incubator, which were analyze with Incucyte 2011A software. Three batches were tested and the results were consistent (FIG. 13).

mHTT [6] = experiment: Western-blot of HTT levels in primary cultured Hdh^Q140/Q7 mouse cortical neurons; type: cell-based; conditions: treated 2 days, Western-blots (antibody 2166)
Method: as §1, §2

[7] = molecular target: T5, full-length mHTT (flHTT-Q73) (Homo sapiens, UniProt P42858, INS38QQQQQQQQQQQQQQQQQQQQQQQQQQQQQQQQQQQQQQQQQQQQQQQQQQQQ); experiment: OI-RD detection of affinity to full-length HTT; type: binding
T5 construct: protein A (N, cleaved yes); made in house; host or cells: human embryonic kidney E293 cells
Method: (1) The human HTT gene (GenBank: NM_002111.8) with (CAG)23 or (CAG)73 was synthesized de novo by Genewiz Inc. The human HTT gene was cloned into the modified pCAG vector (from Addgene) with N-terminal protein A tag.
The protein is purified with IgG monoclonal antibody-agarose (Smart-lifesciences, SA030010), digested with TEV protease to remove the protein A tag, and further purified with Mono Q and Superose 6 (5/150 GL) columns from GE healthcare. Validation is conducted using Coomassie blue staining and Western-blots.

wtHTT [8] = molecular target: T3, wtHTT; conditions: Hdh^Q140/Q7 mouse cortical neurons, treated 2 days, Western-blots (antibody 2166)
Method: as §1
(1) The primary cultured Hdh^Q140/Q7 and Hdh^Q7/Q7 mouse cortical neuron cells were treated with the compound for 2 days.

[9] = molecular target: T6, wild-type ATXN3 protein (ATXN3-Q27) (Homo sapiens, UniProt P54252, G306R/INS305QQQQQQQQQQQQQQQQQ/V212M); experiment: Western-blot of ATXN3 level in fibroblasts; type: cell-based; conditions: 100 nM compound 1 or 50 nM compound 2 for 2 days; Western-blots
T6 construct: endogenous in cells; host or cells: wild-type fibroblasts (Q27), and possibly the normal allele of SCA3 patient fibroblasts
Method: (§3) Some primary patient fibroblasts and wild-type cells are from HD patients (Q47, Q55) of the Mongolian Huntington's disease family and healthy controls (WT, Q19). SCA3 cell line was from patient (Q74). The HD Q68 fibroblast cell line was from Coriell Cell Repositories (Camden, N.J., USA). Immortalized fibroblasts and induced stem cells (iPSCs) are prepared from primary fibroblasts. HEK293T cells were from ATCC.
(§4) Then the levels of mutant ATXN3 protein (ATXN3-Q74, SEQ ID NO: 3) and wild-type ATXN3 protein (ATXN3-Q27, SEQ ID NO: 4) were determined by Western-blots (FIG. 22). […] Therefore, the compound can be used to treat SCA3.

Q25-GFP [10] = experiment: Level of polyQ-GFP fusion protein in HEK293T cells (Incucyte fluorescence counting); type: cell-based; conditions: 100 nM compound 1 or 50 nM compound 2 for 2 days
Excerpt: (§5) The inventors used HEK293T cells exogenously expressing polyQ-GFP fusion proteins (Q72-GFP or Q25-GFP) to detect compounds that can control the level of proteins containing expanded polyglutamine in the cells. The method was as follows:
(§6) (1) PolyQ-GFP cDNA sequence (expressing Met-polyQ-GFP, wherein polyQ was Q72 or Q25) was synthesized de novo and subcloned into pcDNA vector. It was transfected into HEK293T cells (ATCC, CRL-3216) through forward transfection to obtain Q72-GFP expressing cells and Q25-GFP expressing cells, respectively. And the same method was used to obtain cells expressing Q53-GFP, cells expressing Q46-GFP, and cells expressing Q38-GFP.
(§7) (3) The Q72-GFP expressing cells and Q25-GFP expressing cells obtained in step (1) were used. […] Then the level of polyQ-GFP was measured by Incucyte fluorescence counting (FIG. 1).

Q72-GFP = experiment: as above; type: cell-based; conditions: 100 nM compound 1 or 50 nM compound 2 for 2 days
Excerpt: as §5, §6, §7

[11] = molecular target: T7, mutant ATXN3 protein (ATXN3-Q74) (Homo sapiens, UniProt P54252, G306R/INS305QQQQQQQQQQQQQQQQQQQQQQQQQQQQQQQQQQQQQQQQQQQQQQQQQQQQQQQQQQQQQQQQ/V212M); experiment: Western-blot of ATXN3 level in SCA3 patient fibroblasts (Q74); type: cell-based; conditions: 100 nM compound 1 or 50 nM compound 2 for 2 days, Western-blots
T7 construct: endogenous in cells; host or cells: SCA3 patient fibroblasts (Q74)
Method: as §3, §4

[12] = molecular target: T8, normal ATXN3 protein (MBP-ATXN3-Q28) (Homo sapiens, UniProt P54252, INS305QQQQQQQQQQQQQQQQQQ); experiment: MST detection of affinity to ATXN3; type: binding; conditions: method in 2.2
T8 construct: His8; made in house; host or cells: Escherichia coli Rosetta(DE3)pLysS
Method: (1) His8 tag and TEV protease cleavage site is added in pMal-C2x plasmid (from New England Biolabs) to prepare prokaryotic expression vector pMBP. The ATXN3 gene (GenBank: NM_001127696.2) is edited to control the length of the expanded polyglutamine, the gene is amplified and cloned into the prepared pMBP to obtain the pMBP-ATXN3-Q28 and pMBP-ATXN3-Q68 plasmids with polyQ repeated 28 and 68 times, respectively.
(2) The expression plasmids pMBP-ATXN3-Q28 and pMBP-ATXN3-Q68 were introduced into Escherichia coli Rosetta(DE3)pLsyS for expression. Preliminary purification was conducted with HisTrap HP column (GE Healthcare, 17524701). The product was concentrated by ultrafiltration and then further purified with Superose 6 Increase 10/300 GL size exclusion column (GE Healthcare).
(3) As verified by SDS-PAGE, the purity of the prepared human MBP-ATXN3-Q28 and MBP-ATXN3-Q68 exceeds 98%.

Q25-GFP [13] = conditions: MST; 20 mM HEPES, pH 7.4, 150 mM NaCl; protein 500 nM
mHTT [14] = experiment: Intracerebroventricular injection: mHTT and wtHTT levels in cortices of HD mice (Western-blots); type: in vivo, mouse; conditions: Hdh^Q140/Q7 mice; icv 2 μL of 25 μM per day, 10 days; Western-blots (antibody 2166)
Method: Mice expressing wild-type HTT gene (Hdh^Q7/Q7) were from the Marian Difiglia laboratory of Massachusetts General Hospital, Harvard University.
Experimental animals: Hdh^Q140/Q7 mice (3 months old), 4 in each group.
Each test includes three repetitions for each sample, and the mean values was calculated (FIG. 17).

[15] = In vivo compound detection in brain tissues of ip-injected mice (LC-MS/MS); conditions: mouse, 2 hours after ip-injection (0.5 mg/kg), read-out: level of compound reached the brain tissue
Method: (§8) Experimental method: The compound or control DMSO was diluted with 0.9% NaCl intravenous infusion solution to 0.05 μg/μL. One ip-injection (0.5 mg/kg) was conducted per day. After 14 days of injection, tissue extraction or behavioral experiment were conducted.
In vivo compound detection in brain tissues of ip-injected mice: 2 hours after ip-injection of DMSO or compound in mice, the brain was dissected, weighed, and the compound in the brain tissue was extracted, analyzed with UPLC-MS (Acquity Ultra Performance Liquid Chromatography System, Acquity UPLC BEH C18 (1.7 μm, 2.1×50 mm) column and Xevo TQ-S mass spectrometer, Waters Corporation, Milford, MA, USA) for LC-MS/MS analysis. […] The compound of the present invention can be delivered to the brain of mice through the BBB smoothly, which potentially facilitates oral administration of the compound.

mHTT aggregates = mHTT aggregates in cortices of Hdh^Q140/Q7 mice (dot-blot, HTRF 4C9/4C9); type: in vivo, mouse; conditions: ip-injection, dot-blot 4C9 and HTRF 4C9/4C9
Method: as §8
(3) mHTT aggregates in the cortices of Hdh^Q140/Q7 mice were detected by dot-blot experiment (antibody: 4C9, bar plot showing the results of two repetitions) and HTRF (antibody pair: 4C9/4C9). Sampling was repeated for each mouse two to three times on average (FIG. 20).

mHTT [16] = experiment: Intraperitoneal injection: mHTT and wtHTT levels in cortices and striata of HD mice (Western-blots); type: in vivo, mouse; conditions: Hdh^Q140/Q7 mice, ip 0.5 mg/kg per day, 14 days
Method: as §8
(1) 13 Hdh^Q140/Q7 mice (5 months old) were randomized into 2 groups.
One ip-injection was conducted per day. After 14 days of injection, the protein was extracted and the levels of mHTT and wtHTT in the cortices of HD mice were detected by Western-blots (FIG. 18).
(2) A total of 13 mice Hdh^Q140/Q7 mice (10 months old) were used, 6-7 mice in each group. According to the above method, the mouse brain striatum neuronal protein was extracted and the levels of mHTT and wtHTT were detected by Western-blots (FIG. 19).

mHTT [17] = experiment: HTRF of mHTT in HD patient immortalized fibroblasts; conditions: at different doses (FIG. 10)
Method: Homogeneous time-resolved fluorescence (HTRF) analysis: the cell or tissue lysate was diluted with the original lysis buffer PBS+1% (v/v) Triton X-100+1×cOmplete™ protease inhibitor to lyse the sample, then HTRF assay buffer (50 mM NaH2PO4, 400 mM NaF, 0.1% BSA, 0.05% (v/v) Tween-20, 1% (v/v) Triton X-100, pH 7.4) was used to dilute the specified antibody pair for detection. In HTRF buffer, the donor antibody concentration was 0.023 ng/μL and the acceptor antibody concentration was 1.4 ng/μL.

T1 sequence (P54253 with tags, fused parts or gaps with the stated changes): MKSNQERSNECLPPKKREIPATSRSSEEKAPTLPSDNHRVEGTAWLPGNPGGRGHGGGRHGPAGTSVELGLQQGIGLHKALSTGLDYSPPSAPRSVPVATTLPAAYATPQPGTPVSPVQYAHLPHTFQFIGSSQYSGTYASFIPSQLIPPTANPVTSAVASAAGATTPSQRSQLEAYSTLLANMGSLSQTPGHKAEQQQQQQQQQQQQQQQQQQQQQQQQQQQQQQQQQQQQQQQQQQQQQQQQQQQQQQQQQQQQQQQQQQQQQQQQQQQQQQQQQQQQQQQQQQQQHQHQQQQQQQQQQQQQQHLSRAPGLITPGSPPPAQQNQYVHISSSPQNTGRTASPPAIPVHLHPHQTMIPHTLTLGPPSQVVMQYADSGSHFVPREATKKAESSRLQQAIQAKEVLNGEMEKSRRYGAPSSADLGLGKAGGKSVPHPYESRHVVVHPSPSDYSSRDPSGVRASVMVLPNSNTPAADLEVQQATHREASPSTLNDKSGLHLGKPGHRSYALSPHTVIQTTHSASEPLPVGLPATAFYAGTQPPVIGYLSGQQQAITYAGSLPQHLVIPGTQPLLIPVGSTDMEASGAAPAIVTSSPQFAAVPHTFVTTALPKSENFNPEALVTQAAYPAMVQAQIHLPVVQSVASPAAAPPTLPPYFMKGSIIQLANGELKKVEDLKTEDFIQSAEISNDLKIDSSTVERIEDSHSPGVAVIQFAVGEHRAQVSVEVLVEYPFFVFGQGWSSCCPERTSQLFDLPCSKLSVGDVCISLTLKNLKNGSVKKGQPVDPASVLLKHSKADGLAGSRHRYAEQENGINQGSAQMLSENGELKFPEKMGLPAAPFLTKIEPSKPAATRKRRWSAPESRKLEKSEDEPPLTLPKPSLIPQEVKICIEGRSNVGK
T6 sequence (P54252 with tags, fused parts or gaps isoform P54252-1 with the stated changes): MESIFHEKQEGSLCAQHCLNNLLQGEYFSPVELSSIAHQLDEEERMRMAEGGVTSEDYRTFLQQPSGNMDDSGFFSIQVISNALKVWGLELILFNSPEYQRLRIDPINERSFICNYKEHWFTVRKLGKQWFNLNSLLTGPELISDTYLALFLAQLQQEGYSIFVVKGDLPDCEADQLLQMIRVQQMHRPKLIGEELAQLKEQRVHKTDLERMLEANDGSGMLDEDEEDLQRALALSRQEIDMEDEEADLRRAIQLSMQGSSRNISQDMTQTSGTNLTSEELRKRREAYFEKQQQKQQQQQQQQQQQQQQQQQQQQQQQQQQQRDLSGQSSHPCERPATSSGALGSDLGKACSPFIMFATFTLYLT
T7 sequence (P54252 with tags, fused parts or gaps isoform P54252-1 with the stated changes): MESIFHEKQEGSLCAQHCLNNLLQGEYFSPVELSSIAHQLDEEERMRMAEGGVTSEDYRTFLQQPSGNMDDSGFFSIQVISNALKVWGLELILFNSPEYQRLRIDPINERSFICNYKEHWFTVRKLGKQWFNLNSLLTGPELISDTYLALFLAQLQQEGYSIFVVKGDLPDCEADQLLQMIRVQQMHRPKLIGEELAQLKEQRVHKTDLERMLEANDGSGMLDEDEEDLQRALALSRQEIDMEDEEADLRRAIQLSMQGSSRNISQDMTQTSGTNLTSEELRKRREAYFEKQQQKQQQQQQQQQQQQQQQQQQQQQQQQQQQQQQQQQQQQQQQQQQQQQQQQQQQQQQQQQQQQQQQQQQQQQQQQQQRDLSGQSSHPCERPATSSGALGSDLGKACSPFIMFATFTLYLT
T3 sequence (P42859 whole entry): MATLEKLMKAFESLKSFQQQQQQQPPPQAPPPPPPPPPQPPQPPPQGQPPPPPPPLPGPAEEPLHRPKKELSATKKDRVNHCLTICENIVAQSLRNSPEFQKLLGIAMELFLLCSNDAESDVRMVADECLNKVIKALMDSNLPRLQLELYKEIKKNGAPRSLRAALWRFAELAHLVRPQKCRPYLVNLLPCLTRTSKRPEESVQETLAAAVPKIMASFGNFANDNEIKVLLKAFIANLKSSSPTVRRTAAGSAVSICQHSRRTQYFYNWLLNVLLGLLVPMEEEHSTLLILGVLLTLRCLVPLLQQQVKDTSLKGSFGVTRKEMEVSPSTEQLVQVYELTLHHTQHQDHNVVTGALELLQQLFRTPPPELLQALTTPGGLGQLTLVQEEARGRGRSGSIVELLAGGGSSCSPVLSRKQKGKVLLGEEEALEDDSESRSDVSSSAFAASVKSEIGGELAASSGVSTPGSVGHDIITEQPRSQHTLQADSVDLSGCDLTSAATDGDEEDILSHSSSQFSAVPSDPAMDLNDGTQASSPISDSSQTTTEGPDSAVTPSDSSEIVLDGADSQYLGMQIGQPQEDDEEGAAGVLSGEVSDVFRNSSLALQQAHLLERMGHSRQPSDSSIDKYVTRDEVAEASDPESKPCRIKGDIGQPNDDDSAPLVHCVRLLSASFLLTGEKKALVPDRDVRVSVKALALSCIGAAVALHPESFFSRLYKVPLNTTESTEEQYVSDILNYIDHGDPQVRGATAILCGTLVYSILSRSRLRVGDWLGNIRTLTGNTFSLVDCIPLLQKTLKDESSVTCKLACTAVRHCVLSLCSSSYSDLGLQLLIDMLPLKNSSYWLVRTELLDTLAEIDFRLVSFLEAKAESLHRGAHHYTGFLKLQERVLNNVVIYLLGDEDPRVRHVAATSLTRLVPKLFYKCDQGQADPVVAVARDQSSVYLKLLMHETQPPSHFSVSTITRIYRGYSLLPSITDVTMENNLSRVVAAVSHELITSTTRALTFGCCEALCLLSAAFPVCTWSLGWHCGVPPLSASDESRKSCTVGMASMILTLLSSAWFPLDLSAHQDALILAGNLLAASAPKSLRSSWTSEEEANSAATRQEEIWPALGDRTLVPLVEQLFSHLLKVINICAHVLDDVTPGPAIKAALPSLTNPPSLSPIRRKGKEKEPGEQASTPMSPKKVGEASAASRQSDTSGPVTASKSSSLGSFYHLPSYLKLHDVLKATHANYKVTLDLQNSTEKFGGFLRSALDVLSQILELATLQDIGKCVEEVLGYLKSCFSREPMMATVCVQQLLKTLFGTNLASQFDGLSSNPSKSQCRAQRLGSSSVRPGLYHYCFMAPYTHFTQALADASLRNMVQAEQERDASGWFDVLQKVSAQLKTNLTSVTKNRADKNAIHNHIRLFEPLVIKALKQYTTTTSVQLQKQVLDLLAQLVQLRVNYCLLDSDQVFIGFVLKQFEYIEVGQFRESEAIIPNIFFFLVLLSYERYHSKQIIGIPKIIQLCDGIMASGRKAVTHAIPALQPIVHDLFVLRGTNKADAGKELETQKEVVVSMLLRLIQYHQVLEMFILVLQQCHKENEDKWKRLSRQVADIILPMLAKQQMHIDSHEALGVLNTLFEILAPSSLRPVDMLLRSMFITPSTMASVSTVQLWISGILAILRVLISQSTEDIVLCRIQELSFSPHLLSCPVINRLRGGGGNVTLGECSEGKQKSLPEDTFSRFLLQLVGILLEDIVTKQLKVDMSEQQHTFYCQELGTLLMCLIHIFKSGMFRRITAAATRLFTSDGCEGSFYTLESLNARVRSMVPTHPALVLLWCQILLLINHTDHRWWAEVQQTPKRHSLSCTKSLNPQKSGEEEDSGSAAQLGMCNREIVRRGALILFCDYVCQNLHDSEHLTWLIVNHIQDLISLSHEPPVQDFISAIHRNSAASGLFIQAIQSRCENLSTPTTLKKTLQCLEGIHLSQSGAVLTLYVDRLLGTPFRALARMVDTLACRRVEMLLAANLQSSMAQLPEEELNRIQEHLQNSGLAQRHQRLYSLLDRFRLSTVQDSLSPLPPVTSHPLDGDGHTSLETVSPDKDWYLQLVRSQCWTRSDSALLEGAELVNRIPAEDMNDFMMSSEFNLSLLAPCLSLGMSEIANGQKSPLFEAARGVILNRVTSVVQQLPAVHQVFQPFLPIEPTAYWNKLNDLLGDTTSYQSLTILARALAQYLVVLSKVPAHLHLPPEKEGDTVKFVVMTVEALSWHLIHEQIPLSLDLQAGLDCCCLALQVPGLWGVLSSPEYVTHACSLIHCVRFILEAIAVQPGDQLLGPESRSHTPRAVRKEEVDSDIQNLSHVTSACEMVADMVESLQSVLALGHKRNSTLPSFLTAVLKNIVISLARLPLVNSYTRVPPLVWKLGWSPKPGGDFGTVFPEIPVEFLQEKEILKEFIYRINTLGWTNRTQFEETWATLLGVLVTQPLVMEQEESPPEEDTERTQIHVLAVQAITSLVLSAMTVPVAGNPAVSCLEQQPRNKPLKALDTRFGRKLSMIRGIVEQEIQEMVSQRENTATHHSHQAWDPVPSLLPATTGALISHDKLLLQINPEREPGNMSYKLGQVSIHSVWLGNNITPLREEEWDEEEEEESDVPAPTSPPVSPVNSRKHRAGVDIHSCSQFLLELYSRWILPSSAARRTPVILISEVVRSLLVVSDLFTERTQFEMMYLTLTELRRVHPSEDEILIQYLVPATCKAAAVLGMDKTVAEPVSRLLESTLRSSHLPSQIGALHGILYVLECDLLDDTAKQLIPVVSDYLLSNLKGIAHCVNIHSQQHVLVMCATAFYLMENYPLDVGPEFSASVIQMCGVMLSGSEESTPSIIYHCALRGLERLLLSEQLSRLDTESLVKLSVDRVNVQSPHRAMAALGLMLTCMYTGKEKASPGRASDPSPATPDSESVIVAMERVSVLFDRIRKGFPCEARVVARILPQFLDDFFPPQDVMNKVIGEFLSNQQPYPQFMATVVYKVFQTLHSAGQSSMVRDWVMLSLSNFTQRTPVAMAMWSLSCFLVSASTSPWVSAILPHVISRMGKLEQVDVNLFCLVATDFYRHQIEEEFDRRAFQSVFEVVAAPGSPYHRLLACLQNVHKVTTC

## COc1ccc2c(c1)/C(=C/c1cnc[nH]1)C(=O)N2 [compound 4, Su9516]
[1]
  levels of mutant ATXN1: Decreased levels

## CC(=O)Nc1cc2ccccc2oc1=O [compound 5]
mHTT [2]; HTRF 2B7/MW1, same method as for compounds 1 and 2
  reduction of mHTT levels in HD patient iPSC-derived neurons: approximately 26.8%

## Cc1ccc(C(=O)N(CCCN)[C@@H](c2nc3cc(Cl)ccc3c(=O)n2Cc2ccccc2)C(C)C)cc1 [compound 1, ispinesib]
wtHTT [3]
  wtHTT levels in cortical neurons: did not reduce
[4]
  mHTT levels in transgenic Drosophilae: reduced
mHTT [2]; neurons Q47, HTRF 2B7/MW1, method similar to 5.1
  mHTT levels in HD patient iPSC-derived neurons: Decreased mHTT levels
[5]
  loss of processes and shrinkage of HD neurons after removal of BDNF: significantly improved
mHTT [6]
  level of mHTT in cortical neurons: reduced
[7]
  Kon: 6.43e-05 min/nM
wtHTT [8]
  level of wtHTT in cortical neurons: hardly affected
[9]
  wild-type ATXN3 protein level: no decrease
Q25-GFP [10]
  level of the protein containing the shorter polyglutamine (Q25-GFP): did not reduce
Q72-GFP
  level of the protein containing expanded polyglutamine (Q72-GFP): effectively reduced
[11]
  mutant ATXN3 protein level: decrease
[1]
  levels of mutant ATXN1: Decreased levels

## O=c1cc(-c2ccccc2)c2ccc(O)c(O)c2o1 [compound 6]
[1]
  levels of mutant ATXN1: Decreased levels

## O=c1cc(-c2ccccc2)c2c(O)cc(O)cc2o1 [compound 2]
[12]
  binding with normal ATXN3 protein (MBP-ATXN3-Q28): did not bind
Q25-GFP [13]
  binding affinity with Q25-GFP: no binding affinity
mHTT [14]
  mHTT level in cortices: significantly reduced
[5]
  loss of processes and shrinkage of HD neurons after removal of BDNF: significantly improved
mHTT [6]
  level of mHTT in cortical neurons: reduced
[15]
  concentration at 2 h: 9.48 ng/g
[9]
  wild-type ATXN3 protein level: no decrease
mHTT aggregates
  mHTT aggregates in the cortices: No increase in mHTT aggregates
Q25-GFP [10]
  level of the protein containing the shorter polyglutamine (Q25-GFP): did not reduce
Q72-GFP
  level of the protein containing expanded polyglutamine (Q72-GFP): effectively reduced
[11]
  mutant ATXN3 protein level: decrease
mHTT [16]
  levels of mHTT in the cortices: reduced
  levels of mHTT in the striata: reduced
[1]
  levels of mutant ATXN1: Decreased levels
mHTT [17]
  level of mHTT in HD patient immortalized fibroblasts: reduced
